The results in this text go back to ChEMBL document CHEMBL3137667, “[Drug-induced liver injury; fourteenth updated edition of the bibliographic database of liver injuries and related drugs]” (Gastroenterol Clin Biol, 2004).

The conditions of data set [1]: human.
The nature of data set [2]: Times to onset, minimal and maximal, observed in the indexed observations. [column 'DELAI' in source]. As to conditions: human.
The nature of data set [3]: Highest frequency of moderate liver toxicity observed during clinical trials, expressed as a percentage. [column '% BIOL' in source]. Conditions: human.
The nature of data set [4]: Highest frequency of acute liver toxicity observed during clinical trials, expressed as a percentage. [column '% AIGUE' in source]. Conditions: human.
For data set [5] the following is noted: human, serum.
The nature of data set [6]: Presence of at least one case with successful reintroduction. [column 'REINT' in source]. Conditions: human.
The conditions of data set [7]: human. The source holds these as a separate data set.
The conditions of data set [8]: human. The source holds these as a separate data set.
The conditions of data set [9]: human. This is another data set of the same source.
For data set [10] the following is noted: human. The source holds these as a separate data set.
For data set [11] the following is noted: human, serum. The source holds these as a separate data set.
Data set [12] is described as follows: Comments (NB not yet translated). [column 'COMMENTAIRES' in source]. As to conditions: human.
For data set [13] the following is noted: human, serum, 4383 h.
For data set [14] the following is noted: human. This is another data set of the same source.
The conditions of data set [15]: human. This is another data set of the same source.
For data set [16] the following is noted: human. The source holds these as a separate data set.
The conditions of data set [17]: human. This is another data set of the same source.
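Wherever Hepatotoxicity (association with vascular disease) is given: count of indexed literature references reporting vascular liver injury in humans, e.g. peliosis hepatitis, hepatic veno-occlusive disease or Budd-Chiari syndrome.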
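Wherever Hepatotoxicity (benign tumour) is given: value is a count of indexed literature references citing a benign tumour confirmed by histopathology.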
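Wherever Hepatotoxicity (choleostasis) is given: human cholestatic liver injury, shown by histopathology or by peak ALT or AST elevation over alkaline phosphatase ratio below 2, value counts indexed literature reports.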
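Wherever Hepatotoxicity (chronic liver disease) is given: chronic liver injury confirmed by histopathology or persistently raised serum aminotransferase activity beyond 6 months, value given as the count of indexed literature references.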
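Wherever Hepatotoxicity (cirrhosis) is given: value is a count of indexed literature references reporting cirrhosis confirmed by histopathology.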
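Wherever Hepatotoxicity (cytolytic) is given: human cytolytic liver injury, shown by histopathology or by a ratio above 5 of peak ALT or AST elevation to alkaline phosphatase elevation, value counts indexed references.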
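Wherever Hepatotoxicity (granulomatous hepatitis) is given: value is a count of indexed literature references reporting granulomatous liver disease confirmed by histopathology.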
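Wherever Hepatotoxicity (malignant tumour) is given: malignant tumour confirmed by histopathology, value gives the count of indexed literature references reporting it.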
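Wherever Hepatotoxicity (severe hepatitis) is given: human clinical data: severe hepatitis, meaning potentially life-threatening liver failure or clinically observed cases, the value counts how many indexed literature references report it.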
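Wherever Hepatotoxicity (steatosis) is given: steatosis confirmed by histopathology, value is the count of indexed references.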

Consider `OCCN1CCN(CCCN2c3ccccc3Sc3ccc(C(F)(F)F)cc32)CC1` [FLUPHENAZINE], for which the “Hepatotoxicity (cytolytic)” value in data set [1] is listed as 1. Also, the “Hepatotoxicity (time to onset)” value in data set [2] amounted to 2 weeks. The “Hepatotoxicity (moderate)” value in data set [3] stood at 0%; in data set [5] it was 2. Also, the “Hepatotoxicity (acute)” value in data set [4] was 1%; in [11], 5. In addition, the “Hepatotoxicity (successful reintroduction)” value in data set [6] is recorded as “yes”. The “Hepatotoxicity (choleostasis)” value in data set [7] is 4. Moreover, in data set [8], the “Hepatotoxicity (benign tumour)” value came out at 0. Also, the “Hepatotoxicity (steatosis)” value in data set [9] is on record as 0. The “Hepatotoxicity (malignant tumour)” value in [10] stood at 0. In addition, the “Hepatotoxicity (comment)” value in data set [12] is on record as “RC/HALOPERIDOL”. In addition, in data set [13], the “Hepatotoxicity (chronic liver disease)” value is on record as 0. In addition, the “Hepatotoxicity (severe hepatitis)” value in data set [14] was 0. The “Hepatotoxicity (cirrhosis)” value in data set [15] was determined as 0. Moreover, the “Hepatotoxicity (association with vascular disease)” value in data set [16] is on record as 0. In addition, in [17], the “Hepatotoxicity (granulomatous hepatitis)” value turned out to be 0.

Consider `CCN(CC)CCCC(C)Nc1c2ccc(Cl)cc2nc2ccc(OC)cc12` (stereo not drawn) [QUINACRINE], for which the “Hepatotoxicity (cytolytic)” value in data set [1] is recorded as 2. In addition, the “Hepatotoxicity (time to onset)” value in data set [2] is given as 1 week - 4 months. Moreover, the “Hepatotoxicity (moderate)” value in data set [3] is given as 0%; in [5], 2. In addition, the “Hepatotoxicity (acute)” value in data set [4] was found to be 0.1%; in data set [11], 4. The “Hepatotoxicity (successful reintroduction)” value in data set [6] is “yes”. The “Hepatotoxicity (choleostasis)” value in data set [7] was determined as 1. For the same molecule, in data set [8], the “Hepatotoxicity (benign tumour)” value is given as 0. For the same molecule, the “Hepatotoxicity (steatosis)” value in data set [9] is 0. In [10], the “Hepatotoxicity (malignant tumour)” value amounted to 0. Besides, in data set [12], the “Hepatotoxicity (comment)” value is “CHOLANGITE”. For the same molecule, the “Hepatotoxicity (chronic liver disease)” value in [13] was 0. Also, the “Hepatotoxicity (severe hepatitis)” value in data set [14] worked out at 1. Further, the “Hepatotoxicity (cirrhosis)” value in data set [15] came to 0. The “Hepatotoxicity (association with vascular disease)” value in data set [16] was found to be 0. Also, the “Hepatotoxicity (granulomatous hepatitis)” value in [17] is listed as 0.

For `Cc1ccc(S(=O)(=O)NC(=O)NN2CCCCCC2)cc1` [TOLAZAMIDE], the “Hepatotoxicity (cytolytic)” value in [1] was 5. The “Hepatotoxicity (time to onset)” value in [2] worked out at 3 weeks - 18 months. Moreover, the “Hepatotoxicity (moderate)” value in [3] amounted to 0%; in data set [5], 0. Also, the “Hepatotoxicity (acute)” value came out at 0% in data set [4] and 5 in data set [11]. The “Hepatotoxicity (successful reintroduction)” value in data set [6] is on record as “yes”. Also, the “Hepatotoxicity (choleostasis)” value in data set [7] is 4. The “Hepatotoxicity (benign tumour)” value in data set [8] was determined as 0. In [9], the “Hepatotoxicity (steatosis)” value is 0. In addition, the “Hepatotoxicity (malignant tumour)” value in data set [10] is on record as 0. Further, the “Hepatotoxicity (comment)” value in data set [12] is “CHOLESTASE_PROLONGEE RC/CHLORPROPAMIDE”. Also, the “Hepatotoxicity (chronic liver disease)” value in data set [13] amounted to 0. Also, the “Hepatotoxicity (severe hepatitis)” value in data set [14] is on record as 1. Besides, the “Hepatotoxicity (cirrhosis)” value in data set [15] was 0. For the same molecule, the “Hepatotoxicity (association with vascular disease)” value in [16] was found to be 0. Besides, the “Hepatotoxicity (granulomatous hepatitis)” value in data set [17] was determined as 0.

Consider `C[C@]12CC[C@@H]3c4ccc(OC(=O)N(CCCl)CCCl)cc4CC[C@H]3[C@@H]1CC[C@@H]2O` [ESTRAMUSTINE], for which, in data set [1], the “Hepatotoxicity (cytolytic)” value was found to be 1. For the same molecule, the “Hepatotoxicity (time to onset)” value in [2] is on record as 1 month. Also, the “Hepatotoxicity (moderate)” value turned out to be 2% in data set [3] and 3 in [5]. Also, the “Hepatotoxicity (acute)” value in [4] was determined as 2%; in [11], 2. Also, the “Hepatotoxicity (successful reintroduction)” value in [6] was “yes”. Besides, the “Hepatotoxicity (choleostasis)” value in data set [7] is on record as 0. For the same molecule, the “Hepatotoxicity (benign tumour)” value in data set [8] was determined as 0. Moreover, in data set [9], the “Hepatotoxicity (steatosis)” value is on record as 1. Also, in data set [10], the “Hepatotoxicity (malignant tumour)” value was 0. Besides, the “Hepatotoxicity (comment)” value in [12] is recorded as “NASH”. In addition, in data set [13], the “Hepatotoxicity (chronic liver disease)” value is recorded as 1. For the same molecule, in data set [14], the “Hepatotoxicity (severe hepatitis)” value was found to be 0. Besides, the “Hepatotoxicity (cirrhosis)” value in data set [15] is 0. Further, the “Hepatotoxicity (association with vascular disease)” value in data set [16] is listed as 0. Moreover, in data set [17], the “Hepatotoxicity (granulomatous hepatitis)” value is given as 0.

As to `O=C(N[C@H](CO)[C@H](O)c1ccc([N+](=O)[O-])cc1)C(Cl)Cl` [CHLORAMPHENICOL], in data set [1], the “Hepatotoxicity (cytolytic)” value was determined as 2. The “Hepatotoxicity (time to onset)” value in data set [2] was 1 month - 2 months. In addition, the “Hepatotoxicity (moderate)” value amounted to 46.2% in data set [3] and 1 in [5]. The “Hepatotoxicity (acute)” value in [4] turned out to be 7.7%; in data set [11], 14. The “Hepatotoxicity (successful reintroduction)” value in [6] was “yes”. In data set [7], the “Hepatotoxicity (choleostasis)” value is 1. In data set [8], the “Hepatotoxicity (benign tumour)” value is 0. Further, the “Hepatotoxicity (steatosis)” value in data set [9] is 1. Besides, the “Hepatotoxicity (malignant tumour)” value in [10] is 0. Moreover, the “Hepatotoxicity (comment)” value in data set [12] was “RC/COTRIMOXAZOLE”. The “Hepatotoxicity (chronic liver disease)” value in [13] amounted to 0. Moreover, in data set [14], the “Hepatotoxicity (severe hepatitis)” value is on record as 0. For the same molecule, the “Hepatotoxicity (cirrhosis)” value in data set [15] is 0. Besides, the “Hepatotoxicity (association with vascular disease)” value in [16] was 0. For the same molecule, the “Hepatotoxicity (granulomatous hepatitis)” value in [17] came out at 0.

For `CCN(CCCc1ccccc1)CCCc1ccccc1` [ALVERINE], in data set [1], the “Hepatotoxicity (cytolytic)” value is on record as 2. For the same molecule, the “Hepatotoxicity (time to onset)” value in data set [2] stood at 4 days - 40 days. Further, the “Hepatotoxicity (moderate)” value in [3] is given as 0%; in [5], 0. The results for the “Hepatotoxicity (acute)” value in [4] and in data set [11] were 0% and 2, respectively. Also, in [6], the “Hepatotoxicity (successful reintroduction)” value is listed as “yes”. In addition, the “Hepatotoxicity (choleostasis)” value in data set [7] worked out at 0. In addition, the “Hepatotoxicity (benign tumour)” value in data set [8] turned out to be 0. In addition, in data set [9], the “Hepatotoxicity (steatosis)” value came out at 0. For the same molecule, the “Hepatotoxicity (malignant tumour)” value in [10] is recorded as 0. Moreover, the “Hepatotoxicity (comment)” value in data set [12] is listed as “AC_ANTI-N”. Besides, in data set [13], the “Hepatotoxicity (chronic liver disease)” value was 0. Also, the “Hepatotoxicity (severe hepatitis)” value in data set [14] came to 0. In addition, the “Hepatotoxicity (cirrhosis)” value in [15] is reported as 0. Further, in data set [16], the “Hepatotoxicity (association with vascular disease)” value turned out to be 0. The “Hepatotoxicity (granulomatous hepatitis)” value in data set [17] was found to be 0.

On to STREPTOKINASE, for which, in [1], the “Hepatotoxicity (cytolytic)” value is recorded as 5. Besides, in data set [2], the “Hepatotoxicity (time to onset)” value is given as 1 day - 1 week. The “Hepatotoxicity (moderate)” value in data set [3] turned out to be 75%; in [5] it was 12. Further, the “Hepatotoxicity (acute)” value is listed as 0% in data set [4] and 9 in [11]. Moreover, the “Hepatotoxicity (successful reintroduction)” value in data set [6] was “yes”. The “Hepatotoxicity (choleostasis)” value in data set [7] came to 3. In [8], the “Hepatotoxicity (benign tumour)” value amounted to 0. The “Hepatotoxicity (steatosis)” value in data set [9] was determined as 0. Further, the “Hepatotoxicity (malignant tumour)” value in [10] is 0. For the same molecule, the “Hepatotoxicity (comment)” value in data set [12] is listed as “RUPTURE_HEPATIQUE”. The “Hepatotoxicity (chronic liver disease)” value in data set [13] is recorded as 0. In data set [14], the “Hepatotoxicity (severe hepatitis)” value is listed as 0. For the same molecule, in [15], the “Hepatotoxicity (cirrhosis)” value worked out at 0. In data set [16], the “Hepatotoxicity (association with vascular disease)” value is 0. In data set [17], the “Hepatotoxicity (granulomatous hepatitis)” value is recorded as 0.

For `COCCc1ccc(OCC(O)CNC(C)C)cc1` (stereo not drawn) [METOPROLOL], the “Hepatotoxicity (cytolytic)” value in data set [1] came to 1. For the same molecule, the “Hepatotoxicity (time to onset)” value in data set [2] is reported as 5 days - 17 days. Also, the “Hepatotoxicity (moderate)” value in data set [3] is listed as 32%; in data set [5], 3. For the same molecule, the “Hepatotoxicity (acute)” value in data set [4] came to 0%; in [11] it was 1. Besides, in [6], the “Hepatotoxicity (successful reintroduction)” value is recorded as “yes”. Besides, the “Hepatotoxicity (choleostasis)” value in [7] is 0. Besides, in [8], the “Hepatotoxicity (benign tumour)” value is 0. Also, in data set [9], the “Hepatotoxicity (steatosis)” value was 0. Also, in data set [10], the “Hepatotoxicity (malignant tumour)” value is given as 0. Besides, the “Hepatotoxicity (comment)” value in data set [12] is reported as “ENCEPHALOPATHIE”. For the same molecule, the “Hepatotoxicity (chronic liver disease)” value in data set [13] was determined as 0. In addition, the “Hepatotoxicity (severe hepatitis)” value in data set [14] is 0. For the same molecule, the “Hepatotoxicity (cirrhosis)” value in data set [15] was 0. Besides, the “Hepatotoxicity (association with vascular disease)” value in data set [16] worked out at 0. For the same molecule, the “Hepatotoxicity (granulomatous hepatitis)” value in data set [17] amounted to 0.

As to `CC[C@H](C)C(=O)O[C@H]1C[C@H](O)C=C2C=C[C@H](C)[C@H](CC[C@@H](O)C[C@@H](O)CC(=O)O)[C@H]21` [PRAVASTATIN], the “Hepatotoxicity (cytolytic)” value in [1] worked out at 3. Also, the “Hepatotoxicity (time to onset)” value in data set [2] was 1 week - 20 weeks. Moreover, the “Hepatotoxicity (moderate)” value worked out at 22.5% in data set [3] (Liver) and 50 in [5]. The “Hepatotoxicity (acute)” value came to 1.1% in [4] (Liver) and 7 in data set [11]. In [6], the “Hepatotoxicity (successful reintroduction)” value was “yes”. Besides, the “Hepatotoxicity (choleostasis)” value in [7] was found to be 3. Besides, the “Hepatotoxicity (benign tumour)” value in data set [8] came out at 0. In addition, in data set [9], the “Hepatotoxicity (steatosis)” value was determined as 1. The “Hepatotoxicity (malignant tumour)” value in data set [10] stood at 0. Besides, the “Hepatotoxicity (comment)” value in data set [12] is “AC_ANTI-N/-MF”. In addition, in data set [13], the “Hepatotoxicity (chronic liver disease)” value is given as 0. In addition, the “Hepatotoxicity (severe hepatitis)” value in data set [14] (Liver) turned out to be 0. In data set [15], the “Hepatotoxicity (cirrhosis)” value is reported as 0. In addition, the “Hepatotoxicity (association with vascular disease)” value in [16] is on record as 0. The “Hepatotoxicity (granulomatous hepatitis)” value in [17] was 0.
